Measured values from US20230295115A1, “SUBSTITUTED ISOQUINOLINYLMETHYL AMIDES, ANALOGUES THEREOF, AND METHODS USING SAME” (priority 2020, published 2023).

Tested on: HBV rcDNA
Test: HepDE19 assay with bDNA quantitation of HBV rcDNA
Assay type: cell-based, hepatitis B virus (HBV)
Conditions: HepDE19 cells, 7 day incubation, rcDNA measured by Quantigene 2.0 bDNA assay, top concentration 25 μM; read-out: DE-19bDNA EC50
How it was run: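 HepDE19 cells were switched to tetracycline-free medium and exposed to compound (0.5% DMSO final) for 7 days at 37° C. rcDNA was then quantified by bDNA with an HBV-specific probe set. In parallel, viability was read as ATP content (CellTiter-Glo) after 4 days on replicate plates.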

SMILES: CC(c1c[nH]c(=O)c2cc(F)c(F)cc12)N(C)C(=O)c1cc2ccc(F)cn2c1 (single isomer, unassigned) [Compound 102, N-(1-(6,7-Difluoro-1-oxo-1,2-dihydroisoquinolin-4-yl)ethyl)-6-fluoro-N-methylindolizine-2-carboxamide]
- EC50: 12 µM
